In ChEMBL document CHEMBL3044730, “Synthesis, antimycobacterial, antiviral, antimicrobial activities, and QSAR studies of nicotinic acid benzylidene hydrazide derivatives” (Med Chem Res, 2012):

Columns and labels:
[1] = Cytotoxicity against Chlorocebus aethiops (African green monkey) Vero cells assessed as alteration in cell morphology by microscopy; format: cell-based; conditions: chlorocebus sabaeus
[2] = test system: Punta Toro virus; experiment: Antiviral activity against Punta Toro virus infected Vero cells assessed as inhibition of virus-induced cytopathicity; format: functional, organism-based
[3] = test system: Coxsackievirus B4; experiment: Antiviral activity against Human coxsackievirus B4 infected Vero cells assessed as inhibition of virus-induced cytopathicity; format: functional, organism-based; conditions: Enterovirus B
[4] = test system: Sindbis virus; experiment: Antiviral activity against Sindbis virus infected Vero cells assessed as inhibition of virus-induced cytopathicity; format: functional, organism-based
[5] = test system: Mammalian orthoreovirus 1; experiment: Antiviral activity against Mammalian orthoreovirus 1 infected Vero cells assessed as inhibition of virus-induced cytopathicity by microscopy; format: functional, organism-based; conditions: Mammalian orthoreovirus 1, Vero
[6] = test system: Human respirovirus 3; experiment: Antiviral activity against Human parainfluenza virus 3 infected Vero cells assessed as inhibition of virus-induced cytopathicity by microscopy; format: functional, organism-based; conditions: Human respirovirus 3, Vero
[7] = Cytotoxicity against Homo sapiens (human) HeLa cells assessed as alteration in cell morphology by microscopy; format: cell-based
[8] = test system: Respiratory syncytial virus; experiment: Antiviral activity against Respiratory syncytial virus infected human HeLa cells assessed as inhibition of virus-induced cytopathicity by microscopy; format: functional, organism-based
[9] = test system: Coxsackievirus B4; experiment: Antiviral activity against Human coxsackievirus B4 infected human HeLa cells assessed as inhibition of virus-induced cytopathicity by microscopy; format: functional, organism-based; conditions: Enterovirus B
[10] = test system: Vesicular stomatitis virus; experiment: Antiviral activity against Vesicular stomatitis virus infected human HeLa cells assessed as inhibition of virus-induced cytopathicity by microscopy; format: functional, organism-based
[11] = Cytotoxicity against Homo sapiens (human) HEL cells assessed as alteration in cell morphology by microscopy; format: cell-based
[12] = test system: Human herpesvirus 3 strain Oka vaccine; experiment: Antiviral activity against Human herpesvirus 3 strain Oka vaccine OKA 07-1 (Varicella zoster virus) infected in human HEL cells assessed as inhibition of virus-induced cytopathicity; format: functional, organism-based; conditions: Human alphaherpesvirus 3, OKA 07-1, HEL
[13] = test system: Human herpesvirus 5 strain AD169; experiment: Antiviral activity against Human herpesvirus 5 strain AD169 Davis infected human HEL cells assessed as inhibition of virus-induced cytopathicity by microscopy; format: functional, organism-based; conditions: Human betaherpesvirus 5, Davis
[14] = test system: Human alphaherpesvirus 1; experiment: Antiviral activity against TK(-) aciclovir-resistant Human herpesvirus 1 strain KOS infected in human HEL cells assessed as inhibition of virus-induced cytopathicity; format: functional, organism-based; conditions: Human alphaherpesvirus 1, KOS
[15] = test system: Human alphaherpesvirus 2; experiment: Antiviral activity against Human herpesvirus 2 strain G infected human HEL cells assessed as inhibition of virus-induced cytopathicity by microscopy; format: functional, organism-based; conditions: Human alphaherpesvirus 2, strain G
[16] = test system: Vaccinia virus; experiment: Antiviral activity against Vaccinia virus infected human HEL cells assessed as inhibition of virus-induced cytopathicity by microscopy; format: functional, organism-based; conditions: Orthopoxvirus vaccinia
[17] = Cytotoxicity against Homo sapiens (human) MT4 cells after 4 days by MTT assay; format: cell-based
[18] = test system: Human alphaherpesvirus 1; experiment: Antiviral activity against Human herpesvirus 1 strain KOS infected in human HEL cells assessed as inhibition of virus-induced cytopathicity by microscopy by microscopy; format: functional, organism-based; conditions: Human alphaherpesvirus 1, KOS
[19] = test system: Human immunodeficiency virus 2; experiment: Antiviral activity against Human immunodeficiency virus type 2 (ISOLATE ROD) infected MT4 cells assessed as inhibition of virus-induced cytopathic effect after 4 days by MTT assay; format: functional, organism-based; conditions: Human immunodeficiency virus 2, ISOLATE ROD, MT4, 96 h
[20] = test system: Human immunodeficiency virus 1; experiment: Antiviral activity against Human immunodeficiency virus 1 IIIB infected MT4 cells assessed as inhibition of virus-induced cytopathic effect after 4 days by MTT assay; format: functional, organism-based; conditions: MT4, 96 h
[21] = test system: Candida albicans; experiment: Antimicrobial activity against Candida albicans after 2 days by serial dilution method; format: functional; set-up: unit not given here
[22] = test system: Candida albicans; experiment: Antimicrobial activity against Candida albicans after 7 days by serial dilution method; format: functional; set-up: unit not given here
[23] = test system: Escherichia coli; experiment: Antimicrobial activity against Escherichia coli after 24 hr by serial dilution method; format: functional; set-up: unit not given here
[24] = test system: Staphylococcus aureus; experiment: Antimicrobial activity against Staphylococcus aureus after 24 hr by serial dilution method; format: functional; set-up: unit not given here
[25] = test system: Bacillus subtilis; experiment: Antimicrobial activity against Bacillus subtilis after 24 hr by serial dilution method; format: functional; set-up: unit not given here
[26] = test system: Mycobacterium tuberculosis; experiment: Antimicrobial activity against Mycobacterium tuberculosis by agar dilution method; format: functional

O=C(N/N=C/c1ccc(F)cc1)c1cccnc1
> 100 µg/mL: MCC [1] | EC50 [2] | EC50 [3] | EC50 [4] | EC50 [5] | EC50 [6] | MCC [7] | EC50 [8] | EC50 [9] | EC50 [10] | CC50 [11] | MCC [11] | EC50 [12] | EC50 [13] | EC50 [14] | EC50 [15] | EC50 [16] | EC50 [18]
1.29: -logMIC [21] | -logMIC [23] | -logMIC [24] | -logMIC [25]
25 µg/mL: MIC [26]
> 125 µg/mL: CC50 at 96 h [17] | EC50 [19] | EC50 [20]
1.59: -logMIC [22]

O=C(N/N=C/c1ccc(O)cc1)c1cccnc1
1.28: -logMIC [21]
1.29: -logMIC [23] | -logMIC [24] | -logMIC [25]
91 µg/mL: CC50 [11]
54 µg/mL: EC50 [12]
> 100 µg/mL: MCC [1] | EC50 [2] | EC50 [3] | EC50 [4] | EC50 [5] | EC50 [6] | MCC [7] | EC50 [8] | EC50 [9] | EC50 [10] | MCC [11] | EC50 [13] | EC50 [14] | EC50 [15] | EC50 [16] | EC50 [18]
1.59: -logMIC [22]
104 µg/mL: CC50 at 96 h [17]
> 104 µg/mL: EC50 [19] | EC50 [20]
> 25 µg/mL: MIC [26]

O=C(N/N=C/c1ccccc1[N+](=O)[O-])c1cccnc1
> 100 µg/mL: MCC [1] | EC50 [2] | EC50 [3] | EC50 [4] | EC50 [5] | EC50 [6] | MCC [7] | EC50 [8] | EC50 [9] | EC50 [10] | MCC [11] | EC50 [12] | EC50 [13] | EC50 [14] | EC50 [15] | EC50 [16] | EC50 [18]
> 68 µg/mL: EC50 [19] | EC50 [20]
1.33: -logMIC [21] | -logMIC [23] | -logMIC [24]
46 µg/mL: CC50 [11]
> 25 µg/mL: MIC [26]
1.94: -logMIC [22] | -logMIC [25]
68 µg/mL: CC50 at 96 h [17]

CCOc1cc(/C=N/NC(=O)c2cccnc2)ccc1O
100 µg/mL: MCC [11]
> 117 µg/mL: EC50 [19] | EC50 [20]
63 µg/mL: CC50 [11]
> 70 µg/mL: EC50 [12]
≥ 117 µg/mL: CC50 at 96 h [17]
> 100 µg/mL: MCC [1] | EC50 [2] | EC50 [3] | EC50 [4] | EC50 [5] | EC50 [6] | MCC [7] | EC50 [8] | EC50 [9] | EC50 [10]
1.96: -logMIC [22]
1.06: -logMIC [23]
> 25 µg/mL: MIC [26]
> 20 µg/mL: EC50 [13] | EC50 [14] | EC50 [15] | EC50 [16] | EC50 [18]
1.36: -logMIC [21] | -logMIC [24] | -logMIC [25]

COc1cc(/C=N/NC(=O)c2cccnc2)ccc1O
> 100 µg/mL: MCC [1] | EC50 [2] | EC50 [3] | EC50 [4] | EC50 [5] | EC50 [6] | MCC [7] | EC50 [8] | EC50 [9] | EC50 [10] | CC50 [11] | EC50 [12]
0.43: -logMIC [23] | -logMIC [24] | -logMIC [25]
> 20 µg/mL: EC50 [13] | EC50 [14] | EC50 [15] | EC50 [16] | EC50 [18]
1.64: -logMIC [22]
> 25 µg/mL: MIC [26]
≥ 93 µg/mL: CC50 at 96 h [17]
100 µg/mL: MCC [11]
1.34: -logMIC [21]
> 93 µg/mL: EC50 [19] | EC50 [20]

O=C(N/N=C/c1ccccc1O)c1cccnc1 [N'-(2-HYDROXYBENZYLIDENE)NICOTINOHYDRAZIDE]
> 25 µg/mL: MIC [26]
1.59: -logMIC [25]
1.28: -logMIC [21]
> 0.61 µg/mL: EC50 [19] | EC50 [20]
≥ 4 µg/mL: MCC [11]
0.42 µg/mL: CC50 [11]
> 4 µg/mL: EC50 [14] | EC50 [15] | EC50 [16] | EC50 [18]
> 0.8 µg/mL: EC50 [2] | EC50 [3] | EC50 [4] | EC50 [5] | EC50 [6] | EC50 [8] | EC50 [9] | EC50 [10] | EC50 [13]
1.29: -logMIC [22] | -logMIC [23] | -logMIC [24]
> 2.2 µg/mL: EC50 [12]
0.61 µg/mL: CC50 at 96 h [17]
4 µg/mL: MCC [1] | MCC [7]

COc1ccc(OC)c(/C=N/NC(=O)c2cccnc2)c1
> 25 µg/mL: MIC [26]
> 100 µg/mL: MCC [1] | EC50 [2] | EC50 [3] | EC50 [4] | EC50 [5] | EC50 [6] | MCC [7] | EC50 [8] | EC50 [9] | EC50 [10]
> 20 µg/mL: EC50 [12] | EC50 [13] | EC50 [14] | EC50 [15] | EC50 [16] | EC50 [18]
1.36: -logMIC [21] | -logMIC [24] | -logMIC [25]
100 µg/mL: MCC [11]
> 13 µg/mL: EC50 [19] | EC50 [20]
12 µg/mL: CC50 [11]
1.96: -logMIC [22] | -logMIC [23]
13 µg/mL: CC50 at 96 h [17]
